Source: patent publication US9556378B2, “Chelating agent precursors, fluids containing them, and their use” (AKZO NOBEL CHEMICALS INTERNATIONAL B.V., priority 2011, dated 2017)

Columns and labels:
Type in all cases: physicochemical
[1] = Density, gravimetric (0.50 ml in weighted pipette); details: for Density: 25° C.; for density compared with water (in words): not measurable for the highly viscous esters
Method: (§1) In addition, where possible, the following physical properties of the chelate esters were determined at 25° C.: • Viscosity in mPas • Surface tension in mN/m • Density in kg/m^3
The density was determined gravimetrically by slowly sucking up exactly 0.50 ml of the chelate ester in a weighted pipette and by weighing the total weight of the pipette and the chelate-ester, the weight of 0.50 ml of chelate ester could be determined.

[2] = Viscosity of chelate esters, Brookfield DV-II viscometer, spindle 25; details: 25° C.
Method: as §1
(§2) The viscosity was determined with a Brookfield DV-II viscometer equipped with spindle 25, which is suitable to measure high-viscous liquids. The principle of operation of the DV-II is to drive a specific spindle which is immersed in the test fluid. The viscous drag of the fluid against the spindle is measured by a calibrated spring. The viscosity is calculated from the rotational speed, type, and the torque of the spindle. In addition, the surface tension was determined with a bubble pressure tensiometer. The tensiometer produces gas bubbles at a constant rate and blows them through a capillary which is submerged in the sample liquid. The pressure (P) inside of the bubble continues to increase and the maximum value is obtained when the bubble has the completely hemispherical shape whose radius corresponds exactly to the radius of the capillary.

[3] = Surface tension, bubble pressure tensiometer; details: 25° C.
Method: as §1, §2
By following each step of the bubble formation, change of bubble radius, and the corresponding pressure, the dynamic surface tension can be determined using the Laplace equation in the reduced form for spherical bubble shape within the liquid, equation: σ=(ΔPmax·Rcap)/2 where: σ=dynamic surface tension ΔPmax=maximum pressure drop Rcap=radius of capillary

[4] = Solubility of chelate ester in water
[5] = Hydrolysis rate of chelate esters followed by Fe-TSV (released chelate acid); details: for rate of hydrolysis (in words): 20 wt % ester in demi water, 90° C., Fe-TSV, FIG. 1-3; for effect of pH on hydrolysis rate (release of chelating agent): pH adjusted with caustic to 7 versus ~1, FIG. 4; for solubility of the chelate acid compared with EDTA acid: observed on hydrolysis of the esters, solid EDTA is formed
Method: (§3) In several experiments the hydrolysis of the chelate esters of Example 2 was investigated. First, the hydrolysis rate of the chelate esters was determined with ^1H and ^13C-NMR. […] Secondly, the hydrolysis rate was followed by determination of the Fe-TSV, which gives the concentration of the released chelate acid. To determine the Fe-TSV the chelate ester was added to demi water in a 5 ml glass vial, resulting in an ester concentration of 20 wt %. The mixture was continuously homogenized by shaking and a treatment in the ultrasonic bath. Subsequently, the vial was placed in a stove at 90° C. to simulate well conditions. After certain time intervals a sample was taken and analyzed on Fe-TSV. The percentage of hydrolysis is defined by:
The calculated chelate concentration at the start is calculated from the intake of the ester. The value is corrected for the purity as measured by NMR, assuming a 100% conversion of the corresponding chelate.

[6] = Hydrolysis rate of chelate esters by 1H and 13C-NMR; details: 70° C.
Method: as §3, with “Fe-TSV.” for “Fe-TSV. The percentage of hydrolysis is defined by:”

pH of the ester in water = assay: pH of the ester in water
[7] = 1 wt % / 1% slurry in water, product as formed (acidic)

Density [1] [g/mL]	Viscosity [2]	Surface tension [3] [mN/m]	Soluble in water (pH = 0.5) [4]	Molecule	other results
> 1	8,100 mPas	52.6	no (2 phases)	CCCCOC(=O)CN(CCN(CC(=O)OCCCC)CC(=O)OCCCC)CC(=O)OCCCC [EDTA 4 butyl ester, EDTA-tetrabutyl ester, reference compound]	density compared with water (in words) [1]: clearly higher than water
–	–	–	Yes	COC(=O)CN(CCN(CC(=O)OC)CC(=O)OC)CC(=O)OC [EDTA 4 methyl ester, EDTA-tetramethyl ester, reference compound]	Soluble in water (pH = ~7) [4]: Yes; rate of hydrolysis (in words) [5]: hydrolyzed much faster than the corresponding GLDA or MGDA-methyl ester
> 1	260,000 mPas	51.3	Yes	CCCOC(=O)CN(CCN(CC(=O)OCCC)CC(=O)OCCC)CC(=O)OCCC [EDTA 4 propyl ester, EDTA-tetrapropyl ester, reference compound]	density compared with water (in words) [1]: clearly higher than water; Soluble in water (pH = ~7) [4]: no (2 phases); effect of pH on hydrolysis rate (release of chelating agent) [5]: decreased slightly with increasing pH
1.06	67 mPas	47.8	no (2 phases)	CCCCOCCOC(=O)CCC(C(=O)OCCOCCCC)N(CC(=O)OCCOCCCC)CC(=O)OCCOCCCC (stereo not shown) [GLDA 4 EGMBE, GLDA-tetraEMGBE ester]	–
1.04	38 mPas	41.3	no (2 phases)	CCCCOC(=O)CCC(C(=O)OCCCC)N(CC(=O)OCCCC)CC(=O)OCCCC (stereo not shown) [GLDA 4 butyl ester, GLDA-tetrabutyl ester]	–
–	–	–	Yes	COC(=O)CCC(C(=O)OC)N(CC(=O)OC)CC(=O)OC (stereo not shown) [GLDA 4 methyl ester, GLDA-tetramethyl ester]	time to almost complete hydrolysis [6]: ~2 days; rate of hydrolysis (in words) [5]: nearly the same speed of hydrolysis
1.11	178 mPas	69.2	no (2 phases)	CCCOC(=O)CCC(C(=O)OCCC)N(CC(=O)OCCC)CC(=O)OCCC (stereo not shown) [GLDA 4 propyl ester, GLDA-tetrapropyl ester]	Soluble in water (pH = ~7) [4]: no (2 phases); effect of pH on hydrolysis rate (release of chelating agent) [5]: decreased slightly with increasing pH
–	–	–	–	CCOC(=O)CCC(C(=O)OCC)N(CC(=O)OCC)CC(=O)OCC (stereo not shown) [GLDA tetra ethyl ester]	pH (pH of the ester in water; 1% slurry in water, less acidic product after treatment with 1 eq Na2CO3): ~9; pH (pH of the ester in water; [7]): 1.8
–	–	–	–	O=C(O)CC[C@@H](C(=O)O)N(CC(=O)O)CC(=O)O [GLDA, glutamic acid N,N-diacetic acid]	solubility of the chelate acid compared with EDTA acid [5]: significantly higher
–	–	–	Yes	COC(=O)CN(CC(=O)OC)C(C)C(=O)OC (stereo not shown) [MGDA 3 methyl ester, MGDA-trimethyl ester]	time to almost complete hydrolysis [6]: ~2 days; rate of hydrolysis (in words) [5]: nearly the same speed of hydrolysis
–	–	–	–	CC(C(=O)O)N(CC(=O)O)CC(=O)O (stereo not shown) [MGDA, methylglycine N,N-diacetic acid]	solubility of the chelate acid compared with EDTA acid [5]: significantly higher
–	–	–	–	GLDA Mono Ethyl Ester	pH (pH of the ester in water; [7]): 1.8
